Series [1] deals with Plasmodium berghei. The series is described as follows: Antimalarial activity against GFP-transfected Plasmodium berghei strain ANKA infected in NMRI mouse assessed as reduction in parasitemia at 50 mg/kg, po administered as single dose measured on day 2 by FACS analysis. The arrangement: scale not given: the % may be the effect or the level left. In kind it is functional. For orientation: Flow cytometry measures light scatter and fluorescence of single cells or particles in a stream.

Series [2] can be described thus: Metabolic stability in mouse liver microsomes assessed as intrinsic clearance per mg protein after 60 mins by LC-MS analysis. Type of series: ADME, Microsome. For orientation: Liver microsomes are a subcellular fraction often used to study metabolism.
Series [3] can be described thus: Metabolic stability in human liver microsomes assessed as intrinsic clearance per mg protein after 60 mins by LC-MS analysis. Type of series: ADME, Microsome.
A short description of series [4]: Metabolic stability in rat liver microsomes assessed as intrinsic clearance per mg protein after 60 mins by LC-MS analysis. Type of series: ADME, Microsome.
The test system of series [5] is Plasmodium berghei. The series can be described thus: Antimalarial activity against GFP-transfected Plasmodium berghei strain ANKA infected in NMRI mouse assessed as reduction in parasitemia at 50 mg/kg, po administered as single dose measured on day 3 by FACS analysis. Type of series: functional. The arrangement: scale not given: the % may be the effect or the level left.

The subject of series [6] is Plasmodium berghei. The series can be described thus: Antimalarial activity against GFP-transfected Plasmodium berghei strain ANKA infected in NMRI mouse assessed as reduction in parasitemia at 50 mg/kg, po administered as single dose measured on day 4 by FACS analysis. In kind it is functional. The arrangement: scale not given: the % may be the effect or the level left.

Series [7] concerns Plasmodium berghei. The series is described as follows: Antimalarial activity against GFP-transfected Plasmodium berghei strain ANKA infected in NMRI mouse assessed as reduction in parasitemia at 50 mg/kg, po administered as single dose measured on day 5 by FACS analysis. Type of series: functional. The arrangement: scale not given: the % may be the effect or the level left.
Series [8] has as its system Plasmodium berghei. The series is described as follows: Antimalarial activity against GFP-transfected Plasmodium berghei strain ANKA infected in NMRI mouse assessed as reduction in parasitemia at 25 mg/kg, po administered as single dose measured on day 2 by FACS analysis. In kind it is functional. The arrangement: scale not given: the % may be the effect or the level left.

Series [9] has as its system Plasmodium berghei. The series can be described thus: Antimalarial activity against GFP-transfected Plasmodium berghei strain ANKA infected in NMRI mouse assessed as reduction in parasitemia at 25 mg/kg, po administered as single dose measured on day 3 by FACS analysis. In kind it is functional. Further details: scale not given: the % may be the effect or the level left.

Series [10] concerns Plasmodium berghei. The series can be described thus: Antimalarial activity against GFP-transfected Plasmodium berghei strain ANKA infected in NMRI mouse assessed as reduction in parasitemia at 25 mg/kg, po administered as single dose measured on day 4 by FACS analysis. In kind it is functional. Further details: scale not given: the % may be the effect or the level left.
The subject of series [11] is Plasmodium berghei. The series can be described thus: Antimalarial activity against GFP-transfected Plasmodium berghei strain ANKA infected in NMRI mouse assessed as reduction in parasitemia at 25 mg/kg, po administered as single dose measured on day 5 by FACS analysis. In kind it is functional. The arrangement: scale not given: the % may be the effect or the level left.

Series [12] can be described thus: Metabolic stability in human liver microsomes assessed as degradation half life after 60 mins by LC-MS analysis. Type of series: ADME, Microsome.
Series [13] in a line: Metabolic stability in rat liver microsomes assessed as degradation half life after 60 mins by LC-MS analysis. Type of series: ADME, Microsome.
The nature of series [14]: Metabolic stability in mouse liver microsomes assessed as degradation half life after 60 mins by LC-MS analysis. In kind it is ADME, Microsome.
Series [15] has as its system Plasmodium berghei. The series can be described thus: Antimalarial activity against GFP-transfected Plasmodium berghei strain ANKA infected in NMRI mouse assessed as increase in mean survival time at 25 mg/kg, po administered as single dose (reference value: 5 days ).
Series [16] has as its system Plasmodium berghei. The series can be described thus: Antimalarial activity against GFP-transfected Plasmodium berghei strain ANKA infected in NMRI mouse assessed as increase in mean survival time at 50 mg/kg, po administered as single dose (reference value: 5 days ).
Series [17] is described as follows: Selectivity index, ratio IC50 for rat L6 cells to IC50 for multidrug-resistant Plasmodium falciparum K1 infected in human red blood cells. In kind it is functional.
In a further series the test system is L6. The series can be described thus: Cytotoxicity at rat L6 cells after 72 hrs by microplate alamar blue assay. In kind it is cell-based. A general note: The colour change of resazurin is a common sign of viable cells or microbes.
The test system of series [18] is Plasmodium falciparum. The series is described as follows: Ratio IC50 for chloroquine to compound for multidrug-resistant Plasmodium falciparum K1. In kind it is functional.
The nature of series [19]: Distribution coefficient, log D of the compound at pH 7.4. As to conditions: octanol/water. Type of series: physicochemical.
Series [20] has as its system Plasmodium falciparum. The series is described as follows: microbe, parasite or virus in culture. As to conditions: K1.
Description: Antimalarial activity against multidrug-resistant Plasmodium falciparum K1 infected in human red blood cells assessed as 3H-hypoxanthine incorporation after 48 hrs by liquid scintillation counting
Series [21] has as its system Plasmodium falciparum. The series is described as follows: microbe, parasite or virus in culture. As to conditions: W2, 48 h.
Series [22] has as its system Plasmodium falciparum. The series can be described thus: microbe, parasite or virus in culture. The note with it: HB3.
Description: Antimalarial activity against Plasmodium falciparum HB3
Series [23] deals with Plasmodium falciparum. The series is described as follows: microbe, parasite or virus in culture. The note with it: NF54.
Description: Antimalarial activity against Plasmodium falciparum NF54
The test system of series [24] is Plasmodium falciparum. The series is described as follows: microbe, parasite or virus in culture. The note with it: FC27/Papua New Guinea.
Description: Antimalarial activity against Plasmodium falciparum FC27
The subject of series [25] is Plasmodium falciparum. The series is described as follows: microbe, parasite or virus in culture. As to conditions: FCR-3/Gambia.
Description: Antimalarial activity against Plasmodium falciparum FCR3
The subject of series [26] is Plasmodium falciparum. The series can be described thus: microbe, parasite or virus in culture. As to conditions: Mad20/Papua New Guinea.
Description: Antimalarial activity against Plasmodium falciparum Mad20
The test system of series [27] is Plasmodium falciparum. The series is described as follows: microbe, parasite or virus in culture. As to conditions: K1. The source holds these as a separate data set.
Description: Antimalarial activity against Plasmodium falciparum K1

The microsomal CLint is the capacity of the preparation to metabolise the compound, expressed as a volume cleared per time. The half-life is how long it takes for the measured level to halve. As for `Cl.N#Cc1c(-c2ccc(C(F)(F)F)cc2)cc(NCCN2CCCC2)n2c1nc1ccccc12`, the Activity in the series on Plasmodium berghei [1] is 14.04%; in the series on Plasmodium berghei [5] it was 47.92%; with Plasmodium berghei [6], 73.01%; with Plasmodium berghei [7] it was 88.53%; in the series with Plasmodium berghei [8], 14.75%; with Plasmodium berghei [9], 43.2%. Also, the Activity was found to be 63.73% with Plasmodium berghei [10] and 63.72% with Plasmodium berghei [11]. Besides, the microsomal CLint is 25.6 µL/min/mg in series [2], 88.4 µL/min/mg in series [3] and 25.8 µL/min/mg in [4]. Moreover, the values for the half-life in [12], in series [13] and in series [14] were 0.327 h, 1.12 h and 1.13 h, respectively. In addition, the MSD in the series on Plasmodium berghei [15] was determined as 7.7 days; in the series with Plasmodium berghei [16] it was 5 days.

What is called IC50 is the concentration at which inhibition is half-maximal. For orientation: logD means the decadic logarithm of the distribution of all forms, ionised or not, between an organic phase and buffer at a given pH. As to `N#Cc1c(-c2ccccc2)cc(NCCN)n2c1nc1ccccc12`, the “Ratio IC50” value in series [17] is on record as 4.2; in the series on Plasmodium falciparum [18], 22. Besides, the half-maximal inhibitory concentration (IC50) in the series on L6 (Rattus norvegicus, L6, 72 h) came out at 18900 nM; in the series on Plasmodium falciparum [20] it was 4480 nM. The logD in series [19] turned out to be 0.83.

In the case of `CCN(CC)CCNc1cc(-c2ccc(C(F)(F)F)cc2)c(C#N)c2nc3ccccc3n12`, the “Ratio IC50” value in series [17] was 612; in the series with Plasmodium falciparum [18] it was 3.5. In addition, the IC50 in the series with L6 (l6) was 28800 nM; in the series on Plasmodium falciparum [20], 47 nM; in the series on Plasmodium falciparum [21] it was 84 nM; with Plasmodium falciparum [22], 60 nM; with Plasmodium falciparum [23], 110 nM; with Plasmodium falciparum [24] it was 175 nM. For the same molecule, the IC50 is 137 nM with Plasmodium falciparum [25], 104 nM in the series with Plasmodium falciparum [26] and 47 nM in the series on Plasmodium falciparum [27]. Further, the logD in [19] is 2.94.

The values are drawn from ChEMBL document CHEMBL1799932, “Antimalarial pyrido[1,2-a]benzimidazoles” (J Med Chem, 2011).
